Results as given in US20160058806A1, “METHOD FOR STIMULATING INTESTINAL BARRIER INTEGRITY AFTER NON-NATURAL BIRTH” (N.V. Nutricia, priority 2005, published 2016).

Columns and labels:
[1] = test system: intestinal epithelial cell lines T84; assay: Effect of LC-PUFA on IL-4 mediated barrier disruption of T84 monolayers (TER and permeability); assay type: cell-based; conditions: IL-4 2 ng/ml; fatty acid 100 μM, mucosal compartment; 48 hr pre-incubation + 48 hr co-incubation
Protocol: (§1) Monolayers (MC) of intestinal epithelial cell lines T84 were incubated in the luminal compartment with different 100 μM polyunsaturated fatty acids ARA (arachidonic acid; 5,8,11,14-eicosatetraenoic acid), DHA (cis-4,7,10,13,16,19 docosahexaenoic acid), EPA (eicosapentaenoic acid) or control palmiiic (C 16:0) acid (Palm) (Sigma, St. Louis, USA) for 0, 24, 48 and 72 hr. The epithelial barrier function was determined by measuring the transepithelial resistance (TER, Ωcm^2) by epithelial volt-ohm meter (EVOM; World Precision Instruments, Germany) and permeability for 4 kD FITC dextran (paracellular permeability marker, Sigma, USA).
Monolayers (MC) of intestinal epithelial cell lines T84 were incubated in the presence of IL-4 (2 ng/ml, scrosal compartment, Sigma, USA) with or without polyunsaturated fatty acids ARA, DHA, GLA, EPA, or control palmitic acid (10 μM or 100 μM, mucosal compartment, Sigma, St. Louis, USA). Cells were pre-incubated with ARA, DHA, EPA, or palmitic acid for 48 hr prior to the IL-4 incubation. The co-incubation of PUFA's and palmitic acid with IL-4 was continued for another 48 hr, while culture medium and additives were changed every 24 hr. The epithelial barrier function was determined by measuring the transepithelial resistance (TER) and permeability as described in example 2.

[2] = test system: intestinal epithelial cell lines T84; assay: Effect of LC-PUFA on spontaneous barrier integrity of T84 monolayers (TER and 4 kD FITC dextran flux); assay type: cell-based; conditions: result in words
Protocol: as §1

CCCCCC=CCC=CCC=CCC=CCCCC(=O)O [ARA, 5,8,11,14-eicosatetraenoic acid]
IL-4 Flux [1]: 218 | IL-4 TER [1]: 636

CC/C=C\C/C=C\C/C=C\C/C=C\C/C=C\CCCC(=O)O [EPA, eicosapentaenoic acid]
IL-4 Flux [1]: 228 | IL-4 TER [1]: 539

CCCCC/C=C\C/C=C\C/C=C\CCCCC(=O)O [GLA, gamma-linolenic acid]
effect on basal barrier integrity resistance and flux [2]: positive effect

CCCCCCCCCCCCCCCC(=O)O [Palmitic acid, palmitic acid, reference compound]
IL-4 Flux [1]: 777 | IL-4 TER [1]: 321
